Measurements taken from patent US7405240B2, “Substituted cyclopentanes or cyclopentanones as therapeutic agents” (Allergan, Inc., priority 2006, dated 2008).

Experiments:
hEP2 [1] = biological target: T1, hEP2 (Homo sapiens, UniProt P43116); test: cAMP assay, hEP2; format: cell-based
normotensive dogs = test: Intraocular pressure and ocular surface hyperemia in normotensive dogs; format: in vivo, dog; set-up: maximum OSH score: scale not given here; conditions: once daily for 5 days
Protocol: (§1) (Z)-7-[(1R,2S,3R,5R)-5-Chloro-2-(3,5-dichloro-phenoxymethyl)-3-hydroxy-cyclopentyl]-hept-5-enoic acid (15b) was tested at multiple concentrations in normotensive dogs, dosing once daily for 5 days. At 0.05%, the maximum IOP decrease from baseline was 4.3 mmHg (30%) at 6 h; the maximum OSH score was 0.6 at 6 h. […] This compound was also tested in laser-induced hypertensive monkeys, using one single day dose. At 0.1%, the maximum IOP decrease from baseline was 6 mmHg (19%) at 6 h.
(§2) (Z)-7-[(1R,2S,3R,5R)-5-Chloro-2-(3,5-dichloro-phenoxymethyl)-3-hydroxy-cyclopentyl]-hept-5-enoic acid isopropyl ester (42b) was tested in normotensive dogs at 0.05%, dosing once daily for 5 days. The maximum intraocular pressure (IOP) decrease from baseline was 3 mmHg (19%) at 6 h; the maximum ocular surface hyperemia (OSH) score was 0.6 at 74 h. This compound was also tested in laser-induced hypertensive monkeys, using one single day dose. At 0.01%, the maximum IOP decrease from baseline was 6 mmHg (16%) at 6 h.

[2] = system: laser-induced hypertensive monkeys; test: Intraocular pressure in laser-induced hypertensive monkeys; format: in vivo, monkey; conditions: one single day dose
Protocol: as §1, §2

hEP2 [3] = biological target: T1, hEP2; test: Competition binding, [3H]PGE2, human EP2 receptors; set-up: expressed in transfected cells; host or cells: HEK 293; conditions: [3H]PGE2, HEK 293 cells stably expressing human EP2; read-out: hEP2 Ki
In short: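 HEK 293 membranes or cells stably expressing human EP2 were incubated with 10 nM [3H]PGE2 and test compound in HBSS/20 mM Hepes pH 7.3, 60 min at 23° C, then filtered. Non-specific binding defined with 10 μM PGE2; IC50 from single-site fit converted to Ki using KD 40 nM.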

hEP4 [4] = biological target: T2, hEP4 (Homo sapiens, UniProt P35408); test: Radioligand binding, EP4 receptor; set-up: expressed in transfected cells; host or cells: HEK-293; conditions: [3H]PGE2, HEK-293 cells expressing EP4
T2 sequence (P35408 whole entry): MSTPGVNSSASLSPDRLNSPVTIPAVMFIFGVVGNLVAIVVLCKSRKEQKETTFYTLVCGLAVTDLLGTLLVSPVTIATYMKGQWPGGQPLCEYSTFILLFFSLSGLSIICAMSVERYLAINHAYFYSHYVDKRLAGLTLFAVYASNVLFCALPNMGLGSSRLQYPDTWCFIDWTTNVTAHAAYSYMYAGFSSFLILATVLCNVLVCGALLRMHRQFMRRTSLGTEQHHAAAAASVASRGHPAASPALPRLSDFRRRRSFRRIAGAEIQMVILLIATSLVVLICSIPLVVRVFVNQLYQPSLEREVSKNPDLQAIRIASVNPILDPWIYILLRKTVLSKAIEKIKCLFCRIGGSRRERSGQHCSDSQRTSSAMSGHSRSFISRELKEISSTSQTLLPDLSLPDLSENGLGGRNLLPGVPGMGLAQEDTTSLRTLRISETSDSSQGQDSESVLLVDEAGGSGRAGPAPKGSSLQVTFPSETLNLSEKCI
In short: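 HEK-293 membranes stably expressing human EP4, in TME buffer pH 7.4; competition vs 5 nM [3H]-PGE2, 60 min at 25 °C, stopped by GF/B filtration. Non-specific binding defined with 10^−5 M unlabeled PGE2; duplicates, at least three experiments.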

hEP2 [5] = biological target: T1, hEP2; test: FLIPR calcium signal, hEP2; format: cell-based; set-up: expressed in transfected cells; host or cells: HEK-293(EBNA); conditions: HEK-293(EBNA) cells expressing hEP2/Gqs5
In short: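 HEK-293(EBNA) cells stably expressing a single human prostaglandin receptor (hDP/Gqs5 chimera for DP), Fluo-4 AM loaded, in HBSS-HEPES pH 7.4 at 37 °C. Peak calcium fluorescence scaled to buffer and receptor standard agonist; 10^−5 M single-point or 10^−5–10^−11 M curves, duplicates, n≥3.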

hEP4 [6] = biological target: T2, hEP4; test: FLIPR calcium signal, hEP4; format: cell-based; set-up: expressed in transfected cells; host or cells: HEK-293(EBNA); conditions: HEK-293(EBNA) cells expressing hEP4/Gqs5
Protocol: Methods for FLIPR™ Studies
HEK-293(EBNA) cells, stably expressing one type or subtype of recombinant human prostaglandin receptors (prostaglandin receptors expressed: hDP/Gqs5; hEP1; hEP2/Gqs5; hEP3A/Gqi5; hEP4/Gqs5; hFP; hIP; hTP), were cultured in 100 mm culture dishes in high-glucose DMEM medium containing 10% fetal bovine serum, 2 mM 1-glutamine, 250 μg/ml geneticin (G418) and 200 μg/ml hygromycin B as selection markers, and 100 units/ml penicillin G, 100 μg/ml streptomycin and 0.25 μg/ml amphotericin B.
Cells were seeded at a density of 5×10^4 cells per well in Biocoat® Poly-D-lysine-coated black-wall, clear-bottom 96-well plates (Becton-Dickinson) and allowed to attach overnight in an incubator at 37° C. Cells were then washed two times with HBSS-HEPES buffer (Hanks Balanced Salt Solution without bicarbonate and phenol red, 20 mM HEPES, pH 7.4) using a Denley Cellwash plate washer (Labsystems). After 45 minutes of dye-loading in the dark, using the calcium-sensitive dye Fluo-4 AM at a final concentration of 2 μM, plates were washed four times with HBSS-HEPES buffer to remove excess dye leaving 100 μl in each well. Plates were re-equilibrated to 37° C. for a few minutes.
Cells were excited with an Argon laser at 488 nm, and emission was measured through a 510-570 nm bandwidth emission filter (FLIPR™, Molecular Devices, Sunnyvale, Calif.). Drug solution was added in a 50 μl volume to each well to give the desired final concentration. The peak increase in fluorescence intensity was recorded for each well. On each plate, four wells each served as negative (HBSS-HEPES buffer) and positive controls (standard agonists: BW245C (hDP); PGE2 (hEP1; hEP2/Gqs5; hEP3A/Gqi5; hEP4/Gqs5); PGF2α (hFP); carbacyclin (hIP); U-46619 (hTP), depending on receptor). The peak fluorescence change in each drug-containing well was then expressed relative to the controls.
Compounds were tested in a high-throughput (HTS) or concentration-response (CoRe) format. In the HTS format, forty-four compounds per plate were examined in duplicates at a concentration of 10^−5 M. To generate concentration-response curves, four compounds per plate were tested in duplicates in a concentration range between 10^−5 and 10^−11 M. The duplicate values were averaged. In either, HTS or CoRe format each compound was tested on at least 3 separate plates using cells from different passages to give an n≧3.

[7] = Canis lupus familiaris, topical, 120 h, 0.1%, read-out: maximum IOP decrease from baseline
[8] = Primates, topical, 0.1%, read-out: maximum IOP decrease from baseline
[9] = Canis lupus familiaris, topical, 120 h, 0.05%, read-out: maximum IOP decrease from baseline

T1 sequence (P43116 whole entry): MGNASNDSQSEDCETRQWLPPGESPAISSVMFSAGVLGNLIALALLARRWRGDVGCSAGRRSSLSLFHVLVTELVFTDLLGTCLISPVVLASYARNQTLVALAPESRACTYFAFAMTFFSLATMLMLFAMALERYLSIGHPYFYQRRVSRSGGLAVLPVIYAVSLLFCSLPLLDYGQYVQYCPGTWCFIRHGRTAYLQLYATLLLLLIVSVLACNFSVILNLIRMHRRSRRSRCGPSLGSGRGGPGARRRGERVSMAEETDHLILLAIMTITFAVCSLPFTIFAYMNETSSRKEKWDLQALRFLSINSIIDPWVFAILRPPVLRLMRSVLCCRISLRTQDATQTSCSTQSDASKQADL

| SMILES | EC50 (hEP2 [1]) [nM] | maximum IOP decrease from baseline (normotensive dogs; 0.1%) [mmHg] | maximum OSH score (normotensive dogs; 0.1%) | time of maximum IOP decrease (normotensive dogs; 0.1%) [h] | time of maximum OSH score (normotensive dogs; 0.1%) [h] | change in vivo at 0.1 % (normotensive dogs; [7]) [%] | maximum IOP decrease from baseline ([2]; 0.1%) [mmHg] | time of maximum IOP decrease ([2]; 0.1%) [h] | change in vivo at 0.1 % [2, 8] [%] | Ki (hEP2 [3]) [nM] | Ki (hEP4 [4]) [nM] | EC50 (hEP2 [5]) [nM] | also measured |
| --- | --- | --- | --- | --- | --- | --- | --- | --- | --- | --- | --- | --- | --- |
| O=C(O)CCC/C=C\C[C@@H]1[C@@H](COc2cccc3ccccc23)[C@H](O)C[C@H]1Cl [Example 19, (Z)-7-[(1R,2S,3R,5R)-5-Chloro-3-hydroxy-2-(naphthalen-1-yloxymethyl)-cyclopentyl]-hept-5-enoic acid] | 2 | 5.8 | 0.8 | 6 | 54 | 41 | 11.8 | 6 | 31 | 17 | 315 | 3 | EC50 (hEP4 [6]): 115 nM |
| O=C(O)CCC/C=C\C[C@@H]1[C@@H](COc2cc(Cl)cc(Cl)c2)[C@H](O)C[C@H]1Cl [Example 15b, (Z)-7-[(1R,2S,3R,5R)-5-Chloro-2-(3,5-dichloro-phenoxymethyl)-3-hydroxy-cyclopentyl]-hept-5-enoic acid] |  | 4.8 | 1.3 | 102 | 6 | 34 | 6 | 6 | 19 |  |  |  | maximum IOP decrease from baseline (normotensive dogs; 0.05%): 4.3 mmHg; maximum OSH score (normotensive dogs; 0.05%): 0.6; time of maximum IOP decrease (normotensive dogs; 0.05%): 6 h; time of maximum OSH score (normotensive dogs; 0.05%): 6 h; change in vivo at 0.05 % (normotensive dogs; [9]): 30% |
| O=C(O)CCC/C=C\C[C@@H]1[C@@H](COc2ccc(CO)cc2)[C@H](O)C[C@H]1Cl [Example 43, (Z)-7-[(1R,2S,3R,5R)-5-Chloro-3-hydroxy-2-(4-hydroxymethyl-phenoxymethyl)-cyclopentyl]-hept-5-enoic acid] | 5 | 2.8 | 0.6 | 98 | 98 | 20 | 2 | 6 | 6 | 993 | > 10000 | 44 |  |
| CC(C)OC(=O)CCC/C=C\C[C@@H]1[C@@H](COc2ccc(CO)cc2)[C@H](O)C[C@H]1Cl [Example 42bb, (Z)-7-[(1R,2S,3R,5R)-5-Chloro-3-hydroxy-2-(4-hydroxymethyl-phenoxymethyl)-cyclopentyl]-hept-5-enoic acid isopropyl ester] |  | 4.6 | 0.6 | 100 | 30 | 33 | 5.5 | 6 | 16 |  |  |  |  |
| Cc1cc(C)cc(OC[C@@H]2[C@@H](C/C=C\CCCC(=O)OC(C)C)[C@H](Cl)C[C@H]2O)c1 [Example 42u, (Z)-7-[(1R,2S,3R,5R)-5-Chloro-2-(3,5-dimethyl-phenoxymethyl)-3-hydroxy-cyclopentyl]-hept-5-enoic acid isopropyl ester] |  | 4.3 | 0.9 | 30 | 74 | 30 | 8 | 6 | 23 |  |  |  |  |
| CC(C)OC(=O)CCC/C=C\C[C@@H]1[C@@H](COc2cc(C(F)(F)F)cc(C(F)(F)F)c2)[C@H](O)C[C@H]1Cl [Example 42c, (Z)-7-[(1R,2S,3R,5R)-2-(3,5-Bis-trifluoromethyl-phenoxymethyl)-5-chloro-3-hydroxy-cyclopentyl]-hept-5-enoic acid isopropyl ester] |  |  |  |  |  |  |  |  |  |  |  |  | maximum IOP decrease from baseline (normotensive dogs; 0.03%): 2.3 mmHg; maximum OSH score (normotensive dogs; 0.03%): 0.7; time of maximum IOP decrease (normotensive dogs; 0.03%): 100 h; time of maximum OSH score (normotensive dogs; 0.03%): 78 h; change in vivo at 0.03 % (normotensive dogs; Canis lupus familiaris, topical, 120 h, 0.03%, read-out: maximum IOP decrease from baseline): 14%; maximum IOP decrease from baseline ([2]; 0.03%): 4 mmHg; time of maximum IOP decrease ([2]; 0.03%): 6 h; change in vivo at 0.03 % ([2]; Primates, topical, 0.03%, read-out: maximum IOP decrease from baseline): 11% |
| CC(C)OC(=O)CCC/C=C\C[C@@H]1[C@@H](COc2cccc(C(F)(F)F)c2)[C@H](O)C[C@H]1Cl [Example 42i, (Z)-7-[(1R,2S,3R,5R)-5-Chloro-3-hydroxy-2-(3-trifluoromethyl-phenoxymethyl)-cyclopentyl]-hept-5-enoic acid isopropyl ester] |  | 2.7 | 0.6 | 2 | 50 | 19 | 4.7 | 6 | 14 |  |  |  |  |
| CC(C)(C)c1cccc(OC[C@@H]2[C@@H](C/C=C\CCCC(=O)O)[C@H](Cl)C[C@H]2O)c1 [Example 27, (Z)-7-[(1R,2S,3R,5R)-2-(3-tert-Butyl-phenoxymethyl)-5-chloro-3-hydroxy-cyclopentyl]-hept-5-enoic acid] | 54 |  |  |  |  |  |  |  |  | 497 | 908 | 189 | EC50 (hEP4 [6]): 16000 nM |
| CC(C)OC(=O)CCC/C=C\C[C@@H]1[C@@H](COc2cc(Cl)cc(Cl)c2)[C@H](O)C[C@H]1Cl [Example 42b, (Z)-7-[(1R,2S,3R,5R)-5-Chloro-2-(3,5-dichloro-phenoxymethyl)-3-hydroxy-cyclopentyl]-hept-5-enoic acid isopropyl ester] |  |  |  |  |  |  |  |  |  |  |  |  | maximum IOP decrease from baseline (normotensive dogs; 0.05%): 3 mmHg; maximum OSH score (normotensive dogs; 0.05%): 0.6; time of maximum IOP decrease (normotensive dogs; 0.05%): 6 h; time of maximum OSH score (normotensive dogs; 0.05%): 74 h; change in vivo at 0.05 % (normotensive dogs; [9]): 19%; maximum IOP decrease from baseline ([2]; 0.01%): 6 mmHg; time of maximum IOP decrease ([2]; 0.01%): 6 h; change in vivo at 0.01 % ([2]; Primates, topical, 0.01%, read-out: maximum IOP decrease from baseline): 16% |
